Experimental data reported in PubChem BioAssay (NCI).
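Assay format: 96-well plates, 48-hour exposure. At the TGI there is no net growth.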

Tests used:
Assay in all cases: NCI anticancer screen, dose series, 48 h
ACHN renal = system: ACHN renal
HOP-92 NSCLC = system: HOP-92 NSCLC
LOX IMVI melanoma = system: LOX IMVI melanoma
NCI/ADR-RES ovarian = system: NCI/ADR-RES ovarian
SW-620 colon = system: SW-620 colon
HL-60(TB) leukemia = system: HL-60(TB) leukemia
RPMI-8226 leukemia = system: RPMI-8226 leukemia
MDA-N = system: MDA-N
TK-10 renal = system: TK-10 renal
BT-549 breast = system: BT-549 breast

| SMILES | TGI (ACHN renal) [µM] | TGI (HOP-92 NSCLC) [µM] | TGI (LOX IMVI melanoma) [µM] | TGI (NCI/ADR-RES ovarian) [µM] | TGI (SW-620 colon) [µM] | TGI (HL-60(TB) leukemia) [µM] | TGI (RPMI-8226 leukemia) [µM] | TGI (MDA-N) [µM] | TGI (TK-10 renal) [µM] | TGI (BT-549 breast) [µM] |
| --- | --- | --- | --- | --- | --- | --- | --- | --- | --- | --- |
| CNC(=S)N/N=C(\C)c1nc2ncccc2[nH]1 | > 100 | > 100 | > 100 | 29.7 | > 100 | 52.8 | > 100 | > 100 | > 96.1 | 99.5 |
| CC1(C)CCCCCCCCCC(C)(CCCCCCCCCCCCO)C1=O (stereo not given) | 28.4 | 31.7 | 32.3 | 32.6 | 32.5 | 38.3 | 42.2 | 33.7 | 31.6 | 30.4 |
| COc1cc(/C=C2\Cc3cc(OC)c(OC)cc3C2=O)cc(OC)c1 | > 100 | > 57.5 | > 100 | > 100 | > 100 | > 100 | > 100 | 39.2 | > 100 | 69.3 |
| CC(=O)CC(C)(C)NC(=O)[C@@]1(O)CC[C@H]2[C@@H]3CCC4=CC(=O)CC[C@@H]4[C@H]3CC[C@@]21C | > 100 | > 100 | > 100 | > 100 | > 100 | > 100 | > 100 | > 100 | > 100 | > 100 |
| CC(NNC(=O)c1ccncc1)c1ccc(Cl)c(Cl)c1 (stereo not given) | > 100 | > 100 | > 100 | > 100 | > 100 | > 100 | > 100 | > 100 | > 100 | > 100 |
| CCOC(=O)C(NC(=O)CC)(Nc1ccc(S(=O)(=O)Nc2nc(C)cc(C)n2)cc1)C(F)(F)F (stereo not given) | > 100 | > 100 | > 100 | > 100 | > 100 | > 100 | > 100 | > 100 | > 100 | > 100 |
| N#Cc1c(Nc2nc3ccccc3s2)c2ccccc2n2c1nc1ccccc12 | > 100 | > 100 | > 100 | > 100 | > 100 | > 100 | > 100 | > 100 | > 100 | > 100 |
| ONC1=Nc2ccccc2OCc2cc(Br)c(Br)cc2COc2ccccc2N=C1NO | > 43.3 | 32 | 45.1 | > 53.7 | > 48.3 | 25 | 43.4 | 34.1 | > 59.6 | 42.5 |
| COc1cc(/C=N\NC(=O)C[N+](C)(C)C)cc(OC)c1OC | > 10 | > 10 | > 10 | > 10 | > 10 | > 10 | > 10 | > 10 | > 10 | > 10 |
| S=C(N/N=C\c1ccccn1)N(Cc1ccccn1)Cc1ccccn1 | 5.13 | 11.4 | 12.6 | 5.2 | > 51.3 | > 100 | > 38.8 | 47.9 | 17.6 | 12.9 |
| N#CC12C(=O)N3C(=NC(c4ccccc4)NC3c3ccccc3)C1(C#N)C(c1ccccc1)NC1=C2CCCC1 (stereo not given) | > 100 | > 100 | > 100 | > 100 | > 100 | > 100 | > 100 | > 100 | > 100 | > 100 |
| CN(CCc1ccc(Cl)c(Cl)c1)CCN(C)CCN1CCCC1 | 47.2 | 16 | 20.1 | > 72.7 | 31.2 | 31.7 | 8.97 | 3.74 | 26.7 | 36.2 |
| CCOC(=O)/C(C#N)=C(/NNc1ccccc1)c1ccncc1C(=O)O | > 100 | > 100 | > 100 | > 100 | > 100 | > 100 | > 100 | > 100 | > 100 | > 100 |
| Cc1cc(O)ccc1C1(c2ccc(F)cc2)OC(=O)c2ccccc21 (stereo not given) | 12.6 | 12.5 | 6.65 | 2.25 | 25.5 | > 72.2 | > 62.1 | 25 | 15.5 | 0.653 |
